Results as given in patent publication US8974793B2, “Methods and systems for inducing immunologic tolerance to non-self antigens” (The Governors Of The University Of Alberta, priority 2008, dated 2015).

Test: Blood plasma stability of A type I antigen functionalized silica-coated stainless steel (modified ELISA readout)
Assay type: in vitro ADME, pig
Conditions: I-14 bound to silica-coated stainless steel, 12 days agitation
Description: Several silica-coated stainless steel samples bearing the A type I antigen were prepared, according to the general procedure defined above. Each of the samples was placed in three different types of pig blood plasma (blood group O, blood group A and commercial pooled blood group O plasma). The samples were agitated on a shaker table for 12 days. After 12 days, the samples were removed from the pig blood plasma and placed in ethanol.
Each silica-coated stainless steel stent surface was treated with a solution of 2% BSA in PBST (200 μL) and shaken (14 h, 5° C.). The surface was then removed and then incubated with mouse anti-A IgM antibodies (5° C., 14 h, 0.023 mg/mL, 50 μL). The surface was then removed, thoroughly washed with PBST and then treated with a secondary HRP conjugated goat anti-mouse IgM antibody (21° C., 3 h, 0.013 mg/mL, 50 μL). The surface was thoroughly washed with PBST to remove unbound antibody and then treated with a solution of SigmaFast OPD (200 μL, 1 h). An aliquot of this solution (100 μL) was then taken and the absorbance measured at 450 nm.

Measured: attachment of antigen to silica-coated stainless steel after plasma incubation (modified ELISA, anti-A IgM, absorbance 450 nm)

CO[Si](CCCSCCCCCCCCO[C@@H]1O[C@H](CO)[C@@H](O)[C@H](O[C@@H]2O[C@H](CO)[C@H](O)[C@H](O[C@H]3O[C@H](CO)[C@H](O)[C@H](O)[C@H]3NC(C)=O)[C@H]2O[C@@H]2O[C@@H](C)[C@@H](O)[C@@H](O)[C@@H]2O)[C@H]1NC(C)=O)(OC)OC [I-14, 8-(3-(trimethoxysilyl)propylthio)octan-1-yl 2-N-Acetyl-3-O-(3-O-(2-N-acetyl-2-deoxy-α-D-galactopyranosyl)-2-O-(α-L-fucopyranosyl)-β-D-galactopyranosyl)-2-deoxy-β-D-glucopyranoside]
confirming the attachment: pig A blood plasma | pig O blood plasma | pig-pooled O blood plasma
